Experimental data taken from patent US12453715B2, “Use of artemether in the prevention and treatment of Alzheimer's disease” (UNIVERSITY OF MACAU, priority 2018, dated 2025).

Legend:
PC12 cells [1] = experiment: MTT assay, Aβ1-42-induced cytotoxicity in PC12 cells; format: cell-based; conditions: 1 μM Aβ1-42 for 24 hours
Protocol: PC12 cells were cultured in DMEM (Dulbecco's Modified Eagle's) medium supplemented with 10% fetal bovine serum (FBS) and 100 μg/ml streptomycin in a humidified incubator 5% CO2 at 37° C. The cells were seeded in 96-well plates, and then treated with Aβ1-42a and artemether. MTT assay was used to access cell viability. MTT (3-(4,5-dimethylthiazole-2)-2,5-diphenyltetrazolium bromide) the detection principle relies on the enzymatic reduction of MTT to water-insoluble purple crystals-formazan particles, which is catalyzed by mitochondrial succinate dehydrogenase produced in living cells. The light absorption value is measured by an enzyme-linked immunoassay at 570 nm wavelength allowing to determine the number of living cells based on the amount of formazan produced. In short, PC12 cells were seeded in 96-well plates. In the next day the medium was replaced with fresh DMEM, and the cells pretreated with different concentrations of artemether or untreated followed by incubation with 1 μM Aβ1-42 for 24 hours. After 24 hours, MTT (0.5 mg/mL) was added to each well and further incubated for another 3 hours at 37° C. After incubation, the cells and MTT formazan crystals were dissolved with DMSO, and the absorbance was measured at 570 nm. Cell viability was calculated as a percentage of the control group.

PC12 cells [2] = experiment: AMPK inhibitor compound C against the protective effect of artemether in PC12 cells (MTT, flow cytometry, Western blot); format: cell-based
Protocol: Apoptosis was evaluated by flow cytometry. PC12 cells were seeded into 6-well plates, treated, digested with 0.25% trypsin, harvested, washed twice with ice cold 1×PBS and suspended with buffer. […] were stained with 5 μL Annexin-V-FITC and 10 μL propidium iodide solution, incubated for 30 min in the dark, and the apoptotic cells in each group were determined and analyzed using a flow cytometer. The other steps are the same as in Embodiment 2.4 and Embodiment 10.

SMILES | effective dose for protection from Aβ1-42-induced cytotoxicity (PC12 cells [1]) | protection from Aβ1-42-induced cytotoxicity (cell viability, MTT) (PC12 cells [1]; artemether pretreatment) | effect on phosphorylation of AMPK and GSK3β (ser9) induced by artemether (PC12 cells [2]; Western blot, GAPDH as internal control) | effect on the protection by artemether from Aβ1-42-induced apoptosis (flow cytometry) (PC12 cells [2]; compound C pretreatment with artemether, Aβ1-42 (1 μM)) | effect on the cell survival effect of artemether (cell viability, MTT) (PC12 cells [2]; compound C pretreatment with artemether, Aβ1-42 (1 μM) for 24 hours)
CO[C@H]1O[C@@H]2O[C@@]3(C)CC[C@H]4[C@H](C)CC[C@@H]([C@H]1C)[C@@]24OO3 [artemether] | about 10 μM | protected PC12 cells from Aβ1-42-induced cytotoxicity in a concentration-dependent manner |  |  | 
c1cc(-c2cnn3cc(-c4ccc(OCCN5CCCCC5)cc4)cnc23)ccn1 [compound C] |  |  | reversed the phosphorylation of AMPK and GSK3β (ser9) induced by artemether | alleviated the protective effect of artemether on Aβ1-42-induced apoptosis | abolished the elevated cell survival effect of artemether
